PubChem BioAssay (NCI)
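Briefly, cells in 96-well plates were exposed to five compound concentrations for 48 h, and endpoints were estimated by linear interpolation. Definition used: TGI = concentration required for complete inhibition of growth.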

How the values were obtained:
Assay in all cases: inhibition of tumour cell growth, NCI panel, 48 h
ACHN renal = system: ACHN renal
SR leukemia = system: SR leukemia
MALME-3M melanoma = system: MALME-3M melanoma
OVCAR-5 ovarian = system: OVCAR-5 ovarian
CAKI-1 renal = system: CAKI-1 renal
IGROV1 ovarian = system: IGROV1 ovarian
DMS 273 small cell lung = system: DMS 273 small cell lung
RXF-631 renal = system: RXF-631 renal
RPMI-8226 leukemia = system: RPMI-8226 leukemia
DLD-1 colon = system: DLD-1 colon
HOP-18 NSCLC = system: HOP-18 NSCLC
SK-OV-3 ovarian = system: SK-OV-3 ovarian
SK-MEL-28 melanoma = system: SK-MEL-28 melanoma
EKVX NSCLC = system: EKVX NSCLC
KM12 colon = system: KM12 colon
SNB-75 CNS = system: SNB-75 CNS
SK-MEL-5 melanoma = system: SK-MEL-5 melanoma
SF-295 CNS = system: SF-295 CNS
UO-31 renal = system: UO-31 renal
COLO 205 colon = system: COLO 205 colon
SF-539 CNS = system: SF-539 CNS
SN12C renal = system: SN12C renal
NCI-H23 lung = system: NCI-H23 lung
U251 CNS = system: U251 CNS
UACC-257 melanoma = system: UACC-257 melanoma
SW-620 colon = system: SW-620 colon
HT29 colon = system: HT29 colon
NCI-H226 lung = system: NCI-H226 lung
UACC-62 melanoma = system: UACC-62 melanoma
NCI-H460 lung = system: NCI-H460 lung
HOP-92 NSCLC = system: HOP-92 NSCLC
K-562 leukemia = system: K-562 leukemia
OVCAR-8 ovarian = system: OVCAR-8 ovarian
SNB-19 CNS = system: SNB-19 CNS
786-0 renal = system: 786-0 renal
MOLT-4 leukemia = system: MOLT-4 leukemia
LOX IMVI melanoma = system: LOX IMVI melanoma
M19-MEL melanoma = system: M19-MEL melanoma
CCRF-CEM leukemia = system: CCRF-CEM leukemia
HL-60(TB) leukemia = system: HL-60(TB) leukemia
OVCAR-4 ovarian = system: OVCAR-4 ovarian
XF 498 CNS = system: XF 498 CNS
SK-MEL-2 melanoma = system: SK-MEL-2 melanoma
A549 NSCLC = system: A549 NSCLC
KM20L2 colon = system: KM20L2 colon
HCT-116 colon = system: HCT-116 colon
NCI-H522 lung = system: NCI-H522 lung
TK-10 renal = system: TK-10 renal
M14 melanoma = system: M14 melanoma
HCT-15 colon = system: HCT-15 colon
DMS 114 small cell lung = system: DMS 114 small cell lung
HCC-2998 colon = system: HCC-2998 colon
LXFL 529 NSCLC = system: LXFL 529 NSCLC
HOP-62 NSCLC = system: HOP-62 NSCLC
OVCAR-3 ovarian = system: OVCAR-3 ovarian
RXF 393 renal = system: RXF 393 renal
A498 renal = system: A498 renal
SNB-78 CNS = system: SNB-78 CNS
SF-268 CNS = system: SF-268 CNS

Q: What does the source list for `O=C(c1ccccc1)N1CCc2c([nH]c3ccccc23)C1`?
A: TGI (ACHN renal): > 100 µM; TGI (SR leukemia): > 100 µM; TGI (MALME-3M melanoma): > 100 µM; TGI (OVCAR-5 ovarian): > 100 µM; TGI (CAKI-1 renal): 86.4 µM; TGI (IGROV1 ovarian): > 100 µM; TGI (DMS 273 small cell lung): > 100 µM; TGI (RXF-631 renal): > 100 µM; TGI (RPMI-8226 leukemia): 74.9 µM; TGI (DLD-1 colon): > 100 µM; TGI (HOP-18 NSCLC): > 100 µM; TGI (SK-OV-3 ovarian): > 100 µM; TGI (SK-MEL-28 melanoma): > 100 µM; TGI (EKVX NSCLC): > 100 µM; TGI (KM12 colon): > 100 µM; TGI (SNB-75 CNS): > 100 µM; TGI (SK-MEL-5 melanoma): 47.6 µM; TGI (SF-295 CNS): > 100 µM; TGI (UO-31 renal): 99.2 µM; TGI (COLO 205 colon): 36.7 µM; TGI (SF-539 CNS): > 100 µM; TGI (SN12C renal): > 100 µM; TGI (NCI-H23 lung): > 100 µM; TGI (U251 CNS): > 100 µM; TGI (UACC-257 melanoma): 95 µM; TGI (SW-620 colon): > 100 µM; TGI (HT29 colon): > 100 µM; TGI (NCI-H226 lung): > 100 µM; TGI (UACC-62 melanoma): > 100 µM; TGI (NCI-H460 lung): > 100 µM; TGI (HOP-92 NSCLC): > 100 µM; TGI (K-562 leukemia): > 100 µM; TGI (OVCAR-8 ovarian): > 100 µM; TGI (SNB-19 CNS): > 100 µM; TGI (786-0 renal): > 100 µM; TGI (MOLT-4 leukemia): 64.4 µM; TGI (LOX IMVI melanoma): > 100 µM; TGI (M19-MEL melanoma): > 100 µM; TGI (CCRF-CEM leukemia): > 100 µM; TGI (HL-60(TB) leukemia): 43.1 µM; TGI (OVCAR-4 ovarian): > 100 µM; TGI (XF 498 CNS): 55 µM; TGI (SK-MEL-2 melanoma): 71.2 µM; TGI (A549 NSCLC): > 100 µM; TGI (KM20L2 colon): > 100 µM; TGI (HCT-116 colon): > 100 µM; TGI (NCI-H522 lung): 64.8 µM; TGI (TK-10 renal): > 100 µM; TGI (M14 melanoma): > 100 µM; TGI (HCT-15 colon): > 100 µM; TGI (DMS 114 small cell lung): 65.1 µM; TGI (HCC-2998 colon): > 100 µM; TGI (LXFL 529 NSCLC): > 100 µM; TGI (HOP-62 NSCLC): > 100 µM; TGI (OVCAR-3 ovarian): > 100 µM

Q: What does the source list for `Nc1cc2c(C3OC(CO)C(O)C3O)[nH]nc2c(=S)[nH]1` (stereo not given)?
A: TGI (ACHN renal): > 100 µM; TGI (SR leukemia): > 100 µM; TGI (MALME-3M melanoma): > 100 µM; TGI (OVCAR-5 ovarian): > 100 µM; TGI (CAKI-1 renal): > 100 µM; TGI (IGROV1 ovarian): > 100 µM; TGI (DMS 273 small cell lung): > 100 µM; TGI (RXF-631 renal): > 100 µM; TGI (RPMI-8226 leukemia): > 100 µM; TGI (DLD-1 colon): > 100 µM; TGI (RXF 393 renal): > 100 µM; TGI (SK-OV-3 ovarian): > 100 µM; TGI (SK-MEL-28 melanoma): > 100 µM; TGI (EKVX NSCLC): > 100 µM; TGI (KM12 colon): > 100 µM; TGI (SNB-75 CNS): > 100 µM; TGI (SK-MEL-5 melanoma): > 100 µM; TGI (SF-295 CNS): > 100 µM; TGI (UO-31 renal): > 100 µM; TGI (COLO 205 colon): > 100 µM; TGI (SF-539 CNS): > 100 µM; TGI (SN12C renal): > 100 µM; TGI (NCI-H23 lung): > 100 µM; TGI (U251 CNS): > 100 µM; TGI (UACC-257 melanoma): > 100 µM; TGI (SW-620 colon): > 100 µM; TGI (HT29 colon): > 100 µM; TGI (NCI-H226 lung): > 100 µM; TGI (UACC-62 melanoma): > 100 µM; TGI (NCI-H460 lung): > 100 µM; TGI (HOP-92 NSCLC): > 100 µM; TGI (K-562 leukemia): > 100 µM; TGI (OVCAR-8 ovarian): > 100 µM; TGI (SNB-19 CNS): > 100 µM; TGI (786-0 renal): > 100 µM; TGI (MOLT-4 leukemia): > 100 µM; TGI (M19-MEL melanoma): > 100 µM; TGI (CCRF-CEM leukemia): > 100 µM; TGI (HL-60(TB) leukemia): > 100 µM; TGI (A498 renal): > 100 µM; TGI (OVCAR-4 ovarian): > 100 µM; TGI (SNB-78 CNS): > 100 µM; TGI (XF 498 CNS): > 100 µM; TGI (SK-MEL-2 melanoma): > 100 µM; TGI (A549 NSCLC): > 100 µM; TGI (KM20L2 colon): > 100 µM; TGI (SF-268 CNS): > 100 µM; TGI (HCT-116 colon): > 100 µM; TGI (NCI-H522 lung): > 100 µM; TGI (M14 melanoma): > 100 µM; TGI (HCT-15 colon): > 100 µM; TGI (DMS 114 small cell lung): > 100 µM; TGI (HCC-2998 colon): > 100 µM; TGI (LXFL 529 NSCLC): > 100 µM; TGI (HOP-62 NSCLC): > 100 µM
